The text below walks through data of the pKa sets of Baltruschat and Czodrowski (2020).

A word on the pKa: it is the pH at which an ionisable group is half protonated. The low end stands for a stronger acid or weaker base, the high end for a weaker acid or stronger base.

Take `CC(=O)Nc1ccc(Nc2ncnc3c2c(-c2ccccc2)cn3-c2ccccc2)cc1`: the pKa was determined as 3.9. For `COc1ccc(CNC(=O)c2c(C)nc3ccccn23)cc1`, the pKa worked out at 5. Then `O=Cc1cc(Br)cc(Br)c1O`, with 5.3. Then `CNC(=O)c1ccc(Oc2ccc3c(c2)CC[NH+](C2CCC2)CC3)nc1`, with 8.6; and `COc1ccc(N2CCOCC2)c2sc(NC(=O)N3CCC(C)(O)CC3)nc12`, with 9.4; and `Cc1nc(C(=O)[O-])ccc1N(C)Cc1cccc(Cl)c1`, with 4.45. To `O=C([O-])c1ccc(NCc2cccc(Oc3ccccc3)c2)cn1` belongs 4.45; to `c1ccc(Nc2ncc3ccccc3n2)cc1`, 3.6. In turn, `COC(=O)/C=C/C(=O)[O-]` registered a pKa of 2.9. Then `Cc1csc2ccc3[nH]c4c(c3c12)C[NH+](C)CC4`, with 8.6. As to `Cc1csc2ncnc(NCCc3ccc(Cl)cc3)c12`, the pKa was determined as 3.9. Then `CC(=O)Nc1cccc(Nc2nc(Nc3ccccc3)n3ncc(C#N)c3n2)c1`, with 9.7; and `O=C(NCc1ccc(Cl)cc1)c1cn2c(CCO)cc3cc(C[NH+]4CCOCC4)cc(c1=O)c32`, with 5.9. Then `C1=CN2CC(c3ccccc3)[NH+]=C2S1` (stereo not drawn), with 8.7.

`O=C(/C=C/c1ccc(Br)cc1)N1CC[NH+](Cc2ccccc2)CC1` showed a pKa of 6.1.

Regarding `O=C(Nc1ccccc1C(=O)[O-])c1cccc(Oc2ccccc2)c1`, the pKa turned out to be 3.3.

On to `Fc1ccc2c(/C=C/c3cccnc3)c[nH]c2c1`, for which the pKa came to 5.3. On to `c1ccc(-c2cnc3c(-c4ccnc5ccccc45)cnn3c2)cc1`, for which the pKa came to 4.9. Consider `O=S(=O)(c1ccccc1)n1cc(-c2cccc3nccn23)c2ccccc21`, for which the pKa was 6.4. Then `CCc1ncnc(NC(CC)c2ccc(Oc3ccc(F)cc3)cc2)c1Br` (stereo not drawn), with 4.3; and `COc1ccc2c(c1)C[NH+](C)CCS2`, with 7.5.

`Cc1ccc2nc(N)ccc2c1` showed a pKa of 7.6. Then `CC(c1cc2ccccc2s1)N(O)C(N)=O` (stereo not drawn), with 10.2; and `C1=C(c2cccc3ccccc23)N2CC[NH+]=C2c2ccccc21`, with 10.3; and `CC(C)Oc1ccc(Cc2ccc(NC3=[NH+]CCN3)cc2)cc1`, with 10.5. For the compound `CC(C(=O)[O-])c1ccc2c(c1)C(=O)c1ccccc1CS2` (stereo not drawn), the pKa came to 4.1. To `COc1cc(Nc2ccccc2C(=O)[O-])cc(OC)c1` belongs 4; to `N#Cc1c(-c2ccccc2)nc(SCc2ccccc2)[nH]c1=O`, 4.5.

`O=C1CCCC2(CCN(c3cnc4ccccc4n3)CC2)N1Cc1ccccc1` yielded a pKa of 3.3. To `CC(C)Nc1nc(Nc2ccc(C(N)=O)cc2)c2sccc2n1` belongs 6.3; to `O=C(NO)C1c2ccccc2Oc2ccccc21`, 8.4. To `Cc1nc(-c2ccc(OCC(C)C)c(C#N)c2)sc1C(=O)[O-]` belongs 4; to `COc1ccc(NS(=O)(=O)c2ccc(-n3cccn3)cc2)cc1OC`, 8.3. Then `COc1cccc2[nH]cc(-c3ccnc(N)n3)c12`, with 5.52.

Take `CCN(CC)c1ncnc2c1cnn2C`: the pKa amounted to 4.2. To `Cc1cc(C(=O)C[NH+]2CCCC2)c(C)n1-c1ccc(F)cc1` belongs 9; to `O=c1[nH]c2cc(C(F)(F)F)ccc2n1Cc1cc(Cl)ccc1O`, 9.75; to `Cc1cc(C)nc(N2CCC3(CCCN(Cc4cn(C)c5ccccc45)C3=O)CC2)n1`, 4.7. The compound `N#Cc1cccc(Nc2ccccc2C(=O)[O-])c1` displayed a pKa of 3.9. Then `Nc1cccc2c1C(=O)N(C1CCC(=O)NC1=O)C2=O` (stereo not drawn), with 10.8. To `O=C1N(Cc2ccccc2)CCCC12CCN(c1cnc3ccccc3n1)CC2` belongs 3.6. As to `Cc1nc2ccccn2c1C(=O)NCc1ccc(Cl)cc1`, the pKa is 5.1.

`N#Cc1cc(C[NH+]2CCC(Nc3ncnc4sc(Cl)cc34)CC2)ccc1F`: the pKa came out at 7. Then `CCOC(=O)N1CCC(C)(C[NH+]2CCC3(CC2)CN(S(C)(=O)=O)c2ncccc23)CC1`, with 8.5. To `COCc1nc2ccccc2n1Cc1ccc(C(C)(C)C)cc1` belongs 4.2; to `CCS(=O)(=O)c1ccc(CC(=O)Nc2nc(-c3ccccc3)c(C(=O)c3ccccc3)s2)cc1`, 7.9; to `COc1ccc(-c2nc(Nc3ccc(F)cc3F)c3ccccc3n2)cc1OC`, 5.2. To `Cc1ccc(C)n1-c1ccc(SCC(=O)[O-])cc1` belongs 3.5; to `Ic1cccc(-c2nn[n-]n2)c1`, 3.7. `CCC1(c2ccccc2)C(=O)NC(=O)N(C)C1=O` (stereo not drawn) came in with a pKa of 7.6. Then `N#Cc1csc(NC(=O)Nc2ccc(Cl)c(Cl)c2)n1`, with 8.3; and `O=c1[nH]c2cc(-c3ccc(F)cc3)ccc2cc1[O-]`, with 8.1; and `Nc1n[nH]c2cc(Br)ccc12`, with 2.9. To `COc1ccc(Br)c(C=O)c1O` belongs 7.5.

On to `Cc1ccc(C)n1-c1ccc(C(=O)[O-])c(O)c1`, for which the pKa came out at 2.3. To `N#Cc1ccc2ccn(-c3ccnc(N)n3)c2c1` belongs 4.6; to `O=C1CN(c2ccccc2)C(=O)N1`, 8.3; to `C1=C(c2ccccc2)N2CC[NH+]=C2c2ccccc21`, 10.3. Turning to `O=C1CCCC2(CCN(c3cnc4ccccc4n3)CC2)N1Cc1c[nH]c2ccccc12`, the pKa is 3.3.

As for `CCNC(=O)OC1CCN(c2nncc3cc(OC)c(OC)cc23)CC1`, the pKa was found to be 5.4. Then `C[NH+](C)CCSc1nc2ccccc2cc1-c1ccccc1`, with 8.4.

`COc1ccc2nccc(-n3cc4c(n3)CCC(NC(=O)c3ccc5c(c3)NC(=O)CS5)C4)c2n1` (stereo not drawn) returned a pKa of 3.8.

On to `CS(=O)(=O)c1ccc(-c2cnc(N)c(-c3ccc(C(F)(F)F)cc3)c2)cc1`, for which the pKa came out at 4.9. To `N#Cc1cnc(NC(=O)Nc2ccc(Cl)c(Cl)c2)s1` belongs 7.5; to `Cc1ccc(OC(C)(C)C(=O)N[C@@H](C)[C@@H](Cc2ccc(OCCF)cc2)c2cccc(C#N)c2)nc1`, 2.7; to `Cc1cc(C)nc(N2CCC3(CCCN(Cc4ccccc4-c4nc(C)no4)C3=O)CC2)n1`, 4.8. Then `Nc1ccc(-c2cc3ccccc3oc2=O)cc1`, with 3.9; and `Cn1cc(C(=O)[O-])c(=O)c2ccccc21`, with 6.5; and `Cc1ccc(C)c(CN2C(=O)CCCC23CCN(c2cnc4ccccc4n2)CC3)c1`, with 3.4.

`O=c1[nH]c2ccccc2c(=O)n1CCCl` registered a pKa of 10. Then `CCc1ccc(-c2cn3c([nH+]2)SCC3)cc1`, with 4.8.

`O=C1CCN(Cc2ccccc2)C(=O)N1` had a pKa of 11.7. To `Nc1ncnc2ccc(-c3cccc(F)c3)nc12` belongs 4.7; to `O=C(Nc1nnc(-c2ccc(F)cc2)o1)c1ccc(Cl)s1`, 5.8. To `Cc1cc(C)nc(N2CCC3(CCCC(=O)N3Cc3cccc4[nH]ccc34)CC2)n1` belongs 4.4. For `COc1cccc(-c2cccc(CCC3(C)CC(=O)N(C)C(N)=[NH+]3)c2)c1` (stereo not drawn), the pKa was 9.4. Then `O=C1N(Cc2c[nH]c3ccccc23)CCCC12CCN(c1cnc3ccccc3n1)CC2`, with 3.9; and `O=C1N(Cc2c[nH]c3ccccc23)CCCC12CCN(c1ncccn1)CC2`, with 3.8; and `O=C([O-])c1ccccc1Nc1cc(C(F)(F)F)cc(C(F)(F)F)c1`, with 3.9. To `O=C(Nc1ccc(F)c(Cl)c1)C1CCN(c2ncccn2)CC1` belongs 3.8.

In turn, `O=C(Nc1nnc(-c2cccs2)o1)c1cccc(C(F)(F)F)c1` gave a pKa of 5.7. To `Nc1nc(-c2ccccc2)cc2ccccc12` belongs 6.9; to `COc1ccccc1S(=O)(=O)Nc1ccc2c(c1)CN(C)C(=O)N2`, 8.65; to `Clc1ccc2c(c1)[NH+]=C(N1CCCCC1)c1ccccc1N2`, 7.2. In turn, `Nc1ncnc2ccc(-c3ccnc(F)c3)nc12` came in with a pKa of 4.5. Then `CC(=O)n1cc(C2=C([O-])CC(C)(C)CC2=O)c2ccccc21`, with 5.2; and `COc1ccc(C2=C([O-])c3ccccc3C2=O)cc1`, with 4.1; and `CN1C(=O)Cn2cc(C(=O)NCc3ccc(Cl)cc3)c(=O)c3cc(C[NH+]4CCOCC4)cc1c32`, with 6.2. Then `COc1ccc2[nH]cc(CN3CCCC4(CCN(c5nc(C)cc(C)n5)CC4)C3=O)c2c1`, with 4.65; and `Cc1[nH]c2ccccc2c1CC[NH2+]Cc1ccc(CCC(=O)N=O)cc1`, with 8.6; and `Cc1ccc(NC(=O)c2ccccc2)cc1Nc1nccc(-c2cccnc2)n1`, with 3.9.

Regarding `O=C(Nc1ccc(Cl)cc1)NS(=O)(=O)c1ccc(Cl)cc1`, the pKa was 3.4. Regarding `Fc1cccc(-c2c[nH]c3ncccc23)c1`, the pKa turned out to be 4.1. Then `Cc1ccc2c(c1)C(=O)C(=O)N2`, with 9.8. Then `CC(C(=O)[O-])c1ccc2c(c1)Cc1ccccc1-2` (stereo not drawn), with 4.3; and `COc1ccc(N)c2ccccc12`, with 4.9. Then `O=c1cc(CSc2cccc(F)c2F)nc2cc[nH]n12`, with 7.35; and `COc1cc2c(cc1OC)CN(c1cc(N)c3cc(OC)c(OC)cc3[nH+]1)CC2`, with 8.9. Take `c1ccc(Nc2nc(NC3CCCCC3)nc3ccccc23)cc1`: the pKa was 8.

`Nc1nc(-c2ccccn2)nc(N)c1Cc1ccc(Cl)cc1Cl` had a pKa of 5.6. The compound `O=c1[nH]c2ccc(-c3ccc(F)cc3)cc2cc1[O-]` showed a pKa of 8.2. To `CCc1ccc(/C=C2/SC(=S)[N-]C2=O)cc1` belongs 5.8; to `CCc1cc(Br)ccc1S(=O)(=O)NCc1ccccc1`, 10.6; to `Cc1cc(C)c2cc(C(=O)NC3CC[NH+](C)CC3)[nH]c2c1`, 8.5.

Compound `COc1ccc(Nc2ccc3ccccc3n2)cc1` registered a pKa of 6.5.

`COc1ccc2c(c1)CN(C(=O)CC[NH+]1CCC(Cc3ccccc3)CC1)CCS2`: the pKa stood at 8.3.

As for `Cc1ccc(NC(=O)c2cccc(C(C)(C)C#N)c2)cc1Nc1ccc2ncn(C)c(=O)c2c1`, the pKa was 3.6. In the case of `C1=C(c2ccc3ccccc3c2)N2CC[NH+]=C2c2ccccc21`, the pKa is 10.2.
